pEC50: −log10 of the molar value.

The subject of test [1] is neurons from hippocampi of E18 rat embryos. Kind of test: Neurite growth length (% NTL) in cultured E18 rat hippocampal neurons, 9-point dose response, 48 hours. The class given is cell-based. The conditions noted are these: Rattus norvegicus, Neuron, 48 h; for activity at 0.078 µM: 78 nM; for activity at 0.156 µM: 156 nM; for activity at 0.312 µM: 312 nM; for activity at 0.625 µM: 625 nM. The gist of the method: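 % NTL comes from automated neurite tracing of βIII-tubulin-stained cells, with 200–300 or more neurons per condition. Compounds were given in a 9-point dilution series (20 μM to 0.078125 μM) for 48 h. Cells were trypsin-dissociated E18 rat hippocampal neurons plated at 1500/well on poly-D-lysine.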

In the next test the test system is Primary Neurons. Kind of test: HCS neurite outgrowth assay (High Content Screening with Primary Neurons). The test is classed as cell-based. The note with it: Primary neuron.

Regarding `COc1ccc(O)c(C(=O)c2ccc(C(=O)N[C@@H]3CNC[C@H]3NC(=O)c3ccc4[nH]ncc4c3)cc2)c1F` [Example A42, N-[(3R,4R)-4-[4-(2-fluoro-6-hydroxy-3-methoxybenzoyl)benzamido]pyrrolidin-3-yl]-1H-indazole-5-carboxamide], in test [1], the activity at 0.078 µM was determined as 115%, the activity at 0.156 µM is 110%, the activity at 0.312 µM turned out to be 126% and the activity at 0.625 µM was 118%. Besides, in test [1], the activity at 1.25 µM was found to be 169%, the activity at 2.5 µM was determined as 255%, the activity at 5 µM stood at 403% and the activity at 10 µM was 431%. The activity at 20 µM in test [1] turned out to be 369%. This compound had a negative logarithm of the EC50 (pEC50) in the test with Primary Neurons of 5.61.

Regarding `COc1ccc(O)c(C(O)c2ccc(C(=O)N[C@@H]3CNC[C@H]3NC(=O)c3ccnc(N)n3)cc2)c1F` (stereo partly drawn) [Example A44, 2-amino-N-[(3R,4R)-4-{4-[(2-fluoro-6-hydroxy-3-methoxyphenyl)(hydroxy)methyl]benzamido}pyrrolidin-3-yl]pyrimidine-4-carboxamide], in test [1], the activity at 0.078 µM was found to be 94%, the activity at 0.156 µM came to 87.1%, the activity at 0.312 µM is 78.8% and the activity at 0.625 µM stood at 76.4%. Besides, in test [1], the activity at 1.25 µM was 99.4%, the activity at 2.5 µM amounted to 96.2%, the activity at 5 µM is 104% and the activity at 10 µM came out at 103%. Further, in test [1], the activity at 20 µM worked out at 105%. The compound further showed a pEC50 with Primary Neurons of 5.69.

In the case of `COc1ccc(OC)c(C(=O)c2ccc(C(=O)N3CCN(C(=O)c4ccncc4)CC3)cc2)c1F` [Example A8, 1-[4-(2-fluoro-3,6-dimethoxybenzoyl)benzoyl]-4-(pyridine-4-carbonyl)piperazine], in test [1], the activity at 0.078 µM is 99.2%, the activity at 0.156 µM stood at 98.7%, the activity at 0.312 µM was found to be 96.4% and the activity at 0.625 µM is 99%. In addition, in test [1], the activity at 1.25 µM worked out at 92.9%, the activity at 2.5 µM came out at 94.4%, the activity at 5 µM came to 93.8% and the activity at 10 µM amounted to 93.2%. Further, the activity at 20 µM in test [1] stood at 81.6%. In the test on Primary Neurons, this compound showed a pEC50 of less than 4.70.

For the compound `COc1ccc(O)c(C(=O)c2ccc(C(=O)N[C@@H]3CNC[C@H]3NC(=O)Cc3cccnc3)cc2)c1F` [Example A46, 4-(2-fluoro-6-hydroxy-3-methoxybenzoyl)-N-[(3R,4R)-4-[2-(pyridin-3-yl)acetamido]pyrrolidin-3-yl]benzamide], in test [1], the activity at 0.078 µM was found to be 95.6%, the activity at 0.156 µM amounted to 95%, the activity at 0.312 µM was determined as 90.8% and the activity at 0.625 µM worked out at 77.5%. Also, in test [1], the activity at 1.25 µM was determined as 93.1%, the activity at 2.5 µM was 86.8%, the activity at 5 µM was found to be 88.1% and the activity at 10 µM was found to be 100%. Also, in test [1], the activity at 20 µM turned out to be 90.2%. The compound also showed a pEC50 in the test on Primary Neurons of 5.78.

As to `O=C(N[C@@H]1CNC[C@H]1NC(=O)c1ccncc1)c1ccccc1` (stereo in doubt) [Example A20, N-[(3R,4R)-4-benzamidopyrrolidin-3-yl]pyridine-4-carboxamide], in test [1], the activity at 0.078 µM came to 86.2%, the activity at 0.156 µM was 81.5%, the activity at 0.312 µM is 77.7% and the activity at 0.625 µM amounted to 86.1%. In addition, in test [1], the activity at 1.25 µM was 88.4%, the activity at 2.5 µM was 90.2%, the activity at 5 µM was 90.7% and the activity at 10 µM came out at 93.8%. The activity at 20 µM in test [1] was 103%. In the test with Primary Neurons, the negative logarithm of the EC50 (pEC50) is 5.02.

Consider `O=C(N[C@@H]1CNC[C@H]1NC(=O)c1ccncc1)c1ccncc1` (stereo in doubt) [Example A10, N-[(3R,4R)-4-(pyridine-4-amido)pyrrolidin-3-yl]pyridine-4-carboxamide], for which, in test [1], the activity at 0.078 µM worked out at 91.7%, the activity at 0.156 µM was 91.2%, the activity at 0.312 µM is 87.5% and the activity at 0.625 µM worked out at 88.2%. In test [1], the activity at 1.25 µM turned out to be 83.7%, the activity at 2.5 µM was 82.9%, the activity at 5 µM is 85.9% and the activity at 10 µM was 86%. For the same compound, the activity at 20 µM in test [1] was 92.6%. The compound also showed a pEC50 in the test on Primary Neurons of 6.03.

On to `COc1ccc(O)c(C(=O)c2ccc(C(=O)Nc3ccncc3NC(=O)c3ccncc3)cc2)c1F` [Example A2, N-{4-[4-(2-fluoro-6-hydroxy-3-methoxybenzoyl)benzamido]pyridin-3-yl}pyridine-4-carboxamide], for which, in test [1], the activity at 0.078 µM was found to be 93.8%, the activity at 0.156 µM amounted to 96.2%, the activity at 0.312 µM worked out at 84.6% and the activity at 0.625 µM amounted to 93%. In test [1], the activity at 1.25 µM worked out at 88.9%, the activity at 2.5 µM turned out to be 91.1%, the activity at 5 µM amounted to 94.1% and the activity at 10 µM turned out to be 93.4%. Also, in test [1], the activity at 20 µM turned out to be 100%. Besides, in the test on Primary Neurons, the pEC50 was 5.74.

Take `COc1ccc(O)c(C(=O)c2ccc(C(=O)N[C@@H]3CNC[C@H]3NC(=O)c3ccnc4[nH]cnc34)cc2)c1F` [Example A48, N-[(3R,4R)-4-[4-(2-fluoro-6-hydroxy-3-methoxybenzoyl)benzamido]pyrrolidin-3-yl]-3H-imidazo[4,5-b]pyridine-7-carboxamide]: in test [1], the activity at 0.078 µM was determined as 109%, the activity at 0.156 µM worked out at 117%, the activity at 0.312 µM was determined as 116% and the activity at 0.625 µM was 120%. In test [1], the activity at 1.25 µM worked out at 144%, the activity at 2.5 µM is 219%, the activity at 5 µM was found to be 332% and the activity at 10 µM came out at 461%. The activity at 20 µM in test [1] was 421%. Moreover, in the test on Primary Neurons, the pEC50 is 5.22.

As to `COc1ccc(O)c(C(=O)c2ccc(C(=O)N[C@@H]3CNC[C@H]3NC(=O)c3ccnc(N)c3)cc2)c1F` [Example A54, 2-amino-N-[(3R,4R)-4-[4-(2-fluoro-6-hydroxy-3-methoxybenzoyl)benzamido]pyrrolidin-3-yl]pyridine-4-carboxamide], in test [1], the activity at 0.078 µM came out at 83.1%, the activity at 0.156 µM was found to be 79.9%, the activity at 0.312 µM is 84.3% and the activity at 0.625 µM was 84.1%. Besides, in test [1], the activity at 1.25 µM is 94.7%, the activity at 2.5 µM is 105%, the activity at 5 µM amounted to 120% and the activity at 10 µM was 151%. The activity at 20 µM in test [1] was determined as 228%. In addition, in the test with Primary Neurons, the pEC50 is less than 4.70.

As to `COc1ccc(O)c(C(=O)c2ccc(C(=O)N[C@@H]3CNC[C@H]3NC(=O)c3ccnc4[nH]ccc34)cc2)c1F` [Example A56, N-[(3R,4R)-4-[4-(2-fluoro-6-hydroxy-3-methoxybenzoyl)benzamido]pyrrolidin-3-yl]-1H-pyrrolo[2,3-b]pyridine-4-carboxamide], in test [1], the activity at 0.078 µM came to 128%, the activity at 0.156 µM was 137%, the activity at 0.312 µM was 131% and the activity at 0.625 µM is 133%. For the same compound, in test [1], the activity at 1.25 µM is 165%, the activity at 2.5 µM came out at 196%, the activity at 5 µM is 267% and the activity at 10 µM was determined as 375%. Further, in test [1], the activity at 20 µM was 488%. The pEC50 with Primary Neurons is 5.07.

In the case of `O=C(c1ccccc1)c1ccc(C(=O)N2CCN(C(=O)c3ccncc3)CC2)cc1` [Example A7, 1-(4-benzoylbenzoyl)-4-(pyridine-4-carbonyl)piperazine], in test [1], the activity at 0.078 µM turned out to be 97%, the activity at 0.156 µM turned out to be 94.8%, the activity at 0.312 µM worked out at 95.7% and the activity at 0.625 µM was determined as 91.2%. Besides, in test [1], the activity at 1.25 µM was 90.8%, the activity at 2.5 µM came to 88.3%, the activity at 5 µM was found to be 92% and the activity at 10 µM worked out at 86.4%. Besides, the activity at 20 µM in test [1] was found to be 91.8%. In addition, the pEC50 in the test on Primary Neurons is 5.78.

In the case of `COc1cc(C(=O)c2ccccc2O)ccc1C(=O)N[C@@H]1CNC[C@H]1NC(=O)c1ccncc1` [Example A69, N-[(3R,4R)-4-[4-(2-hydroxybenzoyl)-2-methoxybenzamido]pyrrolidin-3-yl]pyridine-4-carboxamide], in test [1], the activity at 0.078 µM stood at 94.3%, the activity at 0.156 µM was found to be 96.2%, the activity at 0.312 µM was determined as 96% and the activity at 0.625 µM was determined as 107%. Besides, in test [1], the activity at 1.25 µM stood at 110%, the activity at 2.5 µM is 112%, the activity at 5 µM was found to be 112% and the activity at 10 µM is 119%. The activity at 20 µM in test [1] is 117%. Besides, the pEC50 in the test with Primary Neurons is 6.40.

With `O=C(N[C@@H]1CCC[C@H]1NC(=O)c1ccc(C(=O)c2ccccc2)cc1)c1ccncc1` [Example A15, N-[(1R,2R)-2-(4-benzoylbenzamido)cyclopentyl]pyridine-4-carboxamide], in test [1], the activity at 0.078 µM amounted to 98.5%, the activity at 0.156 µM turned out to be 106%, the activity at 0.312 µM came out at 111% and the activity at 0.625 µM was determined as 114%. Also, in test [1], the activity at 1.25 µM came to 110%, the activity at 2.5 µM worked out at 107%, the activity at 5 µM stood at 110% and the activity at 10 µM worked out at 122%. For the same compound, in test [1], the activity at 20 µM is 136%. Also, in the test with Primary Neurons, the pEC50 was 5.11.

As to `COc1ccc(OC)c(C(=O)c2ccc(C(=O)N[C@@H]3CCCCC[C@H]3NC(=O)c3ccncc3)cc2)c1F` [Example A24, N-[(1R,2R)-2-[4-(2-fluoro-3,6-dimethoxybenzoyl)benzamido]cycloheptyl] pyridine-4-carboxamide], in test [1], the activity at 0.078 µM was found to be 96.3%, the activity at 0.156 µM is 96.8%, the activity at 0.312 µM came out at 93.4% and the activity at 0.625 µM came out at 96.9%. Besides, in test [1], the activity at 1.25 µM stood at 91.8%, the activity at 2.5 µM worked out at 101%, the activity at 5 µM was 114% and the activity at 10 µM was determined as 131%. Besides, the activity at 20 µM in test [1] amounted to 169%. The compound also had a pEC50 with Primary Neurons of 4.79.

For the origin of these results see patent publication US11926613B2, “Kinase inhibitors for the treatment of central and peripheral nervous system disorders” (UNIVERSITY OF MIAMI, priority 2017, dated 2024).
